EP4744680A1, “TARGETED CHEMICAL DRUG AND PREPARATION METHOD THEREFOR, PHARMACEUTICAL COMPOSITION, AND USE OF TARGETED CHEMICAL DRUG” (Bai Yao Zhi Da (Beijing) Nanobio Technology Co., Ltd., priority 2023, dated 2025)

Tests used:
U251-RFP human glioma = assay: In-vivo efficacy study in the U251-RFP human glioma orthotopic mouse model (drug of Example 9); set-up: species or system mouse (BALB/c nude); settings: 6mg/Kg i.v. (tail vein) twice weekly, 8 administrations
Source text: 2.Dosing regimen: Table 41

[1] = tested on: N87 human gastric carcinoma; assay: Comparative in-vivo efficacy test in the N87 mouse gastric carcinoma model (drugs of Example 5 and Example 7); set-up: species or system mouse (BALB/c-nu)
Source text: • Species/strain: BALB/c nude (BALB/c-nu) • Age: 6-8 weeks • Sex: Male • Body weight: 17-19 g
1).Inoculation and grouping: For the N87 human gastric carcinoma model, male BALB/c-nu mice (17.0-19.0 g) were used.Under aseptic conditions, N87 tumor tissue was excised and cut into 2.0 mm × 2.0 mm × 2.0 mm tumor blocks, which were implanted subcutaneously into the left axillary dorsal region of each nude mouse. The day of implantation was designated as Day 0 (D0).When tumor volume reached approximately 250.0 mm^3 (D6), animals with poor tumor take were excluded, and the remaining animals were randomized into groups according to tumor volume; dosing commenced on the day of randomization. 2).Dosing regimen: Table 27
Tumor size is measured three times per week using a vernier caliper. The long diameter (a) and short diameter (b) are recorded. Tumor volume is calculated as: V=0.5×a×b^2
(§1) RTV = Vt /V0 , [formula] where V0 is the tumor volume at grouping/first dosing (D0) and Vt is the tumor volume at each measurement time point.

HepG2 liver cancer = assay: In-vivo efficacy study in the HepG2 mouse liver cancer model (drug of Example 6); set-up: species or system mouse (BALB/cAnSlacNifdc-nu); settings: for Tumor growth inhibition rate (TGI, %) at different days post-inoculation: 6 mg/kg (0.12 mg/mouse) i.v. (tail vein) once weekly
Source text: • Species/strain: BALB/cAnSlacNifdc-nu • Sex: Male • Body weight: 16-18 g
1).Inoculation and grouping: For the HepG2 mouse liver cancer model, male BALB/cAnSlacNifdc-nu nude mice, weighing 16.0-18.0 g, were used.Under aseptic conditions, HepG2 tumor tissue was excised and cut into 2.0mm×2.0mm×2.0mm tumor blocks, which were uniformly implanted subcutaneously into the left axillary dorsal region of nude mice. The day of implantation was designated as Day 0 (D0).When the tumor volume reached approximately 250.0 mm^3 (D7), animals were randomized by tumor volume into three groups: A (control group), B, and C (treatment groups), with 8 animals per group.On the day of randomization, all animals began intravenous (tail-vein) dosing once weekly for a total of 3 administrations. 2.Dosing regimen: Table 37
(§2) Tumor size is measured twice per week using a vernier caliper. The long diameter (a) and short diameter (b) are recorded. Tumor volume is calculated as: V=0.5×a×b^2.
RTV = Vt /V0 , [formula] where V0 is the tumor volume at grouping/first dosing (D0), and Vt is the tumor volume at each measurement time point.
6).Tumor weight: At the end of the study (D23), the remaining animals were euthanized by cervical dislocation. Tumors were excised, weighed, and photographed.

[2] = Body weight and general condition in the U251 study; format: in vivo, mouse (BALB/c nude); settings: Group 3, around D10 post-dosing; 6mg/Kg i.v. twice weekly; possibly due to drug toxicity
[3] = Body weight in the N87 study of the Example 1 drug; format: in vivo, mouse (BALB/c nude); settings: 0.06mg i.v. (tail vein) twice per week for 5 weeks
[4] = Body weight in the N87 study of the Example 5 drug; format: in vivo, mouse (BALB/c nude); settings: 0.12mg i.v. (tail vein) once every 5 days, 5 administrations
A549 lung carcinoma = assay: In-vivo efficacy study in the A549 mouse lung carcinoma model (drugs of Example 6 and Example 20); set-up: species or system mouse (BALB/cAnSlacNifdc-nu); settings: for Tumor growth inhibition rate (TGI, %) at different days post-inoculation: 0.12mg/20g i.v. (tail vein) once weekly, 3 administrations
Source text: • Species/strain: BALB/cAnSlacNifdc-nu • Sex: Male • Body weight: 17-21 g
1).Inoculation and grouping: For the A549 mouse lung carcinoma model, male BALB/cAnSlacNifdc-nu mice weighing 17.0-21.0 g were used. Under aseptic conditions, A549 tumor tissue was excised and cut into 2.0 mm × 2.0 mm × 2.0 mm tumor blocks, which were implanted subcutaneously into the left axillary dorsal region of nude mice. The day of implantation was designated as Day 0 (D0).When the tumor volume reached approximately 150.0 mm^3 (D7), animals were randomized by tumor volume into four groups: A (vehicle control), B, C, and D (drug), with 8 animals per group. On the day of randomization, all groups began intravenous (tail-vein) dosing. Groups A, B, C, and subgroup D1 were dosed once weekly for a total of 3 administrations; subgroup D2 was dosed twice weekly for a total of 6 administrations. 2).Dosing regimen: Table 34
as §2, §1

[5] = 41 days post-N87 inoculation, 0.12mg i.v. (tail vein) once weekly for 6 weeks
[6] = end of the study (D29), intravenous administration

COc1cccc2c1C(=O)c1c(O)c3c(c(O)c1C2=O)C[C@@](O)(C(=O)CO)C[C@@H]3O[C@H]1C[C@H](N)[C@@H](O)[C@H](C)O1 [Epirubicin drug substance (API), Epirubicin]
Tumor growth inhibition rate (TGI, %) at different days post-inoculation (U251-RFP human glioma; Day 6): 35.8% | Tumor growth inhibition rate (TGI, %) at different days post-inoculation (U251-RFP human glioma; Day 10): -3.9% | Tumor growth inhibition rate (TGI, %) at different days post-inoculation (U251-RFP human glioma; Day 13): -7.1% | Tumor growth inhibition rate (TGI, %) at different days post-inoculation (U251-RFP human glioma; Day 17): 19.4% | Tumor weight [1, 5]: 0.62 ± 0.55 g | Tumor-weight inhibition rate, IRTW (%) [1, 5]: 51.74% | Tumor growth inhibition rate (TGI, %) at different post-inoculation days ([1]; Day 10, 0.12mg i.v. (tail vein) once weekly for 6 weeks): 41.17% | Tumor growth inhibition rate (TGI, %) at different post-inoculation days ([1]; Day 13, 0.12mg i.v. (tail vein) once weekly for 6 weeks): 34.62% | Tumor growth inhibition rate (TGI, %) at different post-inoculation days ([1]; Day 17, 0.12mg i.v. (tail vein) once weekly for 6 weeks): 37.16% | Tumor growth inhibition rate (TGI, %) at different post-inoculation days ([1]; Day 20, 0.12mg i.v. (tail vein) once weekly for 6 weeks): 35.17% | Tumor growth inhibition rate (TGI, %) at different post-inoculation days ([1]; Day 24, 0.12mg i.v. (tail vein) once weekly for 6 weeks): 43.86% | Tumor growth inhibition rate (TGI, %) at different post-inoculation days ([1]; Day 27, 0.12mg i.v. (tail vein) once weekly for 6 weeks): 43.86% | Tumor growth inhibition rate (TGI, %) at different post-inoculation days ([1]; Day 31, 0.12mg i.v. (tail vein) once weekly for 6 weeks): 44.19% | Tumor growth inhibition rate (TGI, %) at different post-inoculation days ([1]; Day 34, 0.12mg i.v. (tail vein) once weekly for 6 weeks): 42.97% | Tumor growth inhibition rate (TGI, %) at different post-inoculation days ([1]; Day 38, 0.12mg i.v. (tail vein) once weekly for 6 weeks): 40.97% | Tumor growth inhibition rate (TGI, %) at different post-inoculation days ([1]; Day 41, 0.12mg i.v. (tail vein) once weekly for 6 weeks): 51.83% | tumor growth inhibition rate calculated from tumor weight and tumor volume ([1]; end of the study (D41), tail-vein injection): < 60% | Tumor weight inhibition rate, IRTW (%) (HepG2 liver cancer; 23 days post-HepG2 inoculation, 6 mg/kg (0.12 mg/mouse) i.v. once weekly, 3 administrations): 25.20% | Tumor growth inhibition rate (TGI, %) at different days post-inoculation (HepG2 liver cancer; Day 10, 3 administrations): 16.33% | Tumor growth inhibition rate (TGI, %) at different days post-inoculation (HepG2 liver cancer; Day 14, 3 administrations): 36.16% | Tumor growth inhibition rate (TGI, %) at different days post-inoculation (HepG2 liver cancer; Day 21, 3 administrations): 24.72% | Tumor growth inhibition rate (TGI, %) at different days post-inoculation (HepG2 liver cancer; Day 23, 3 administrations): 22.08% | tumor growth inhibition rate (calculated based on tumor weight and tumor volume) (HepG2 liver cancer; end of the study (D23), intravenous injection): less than 60% | body weight of the mice (and spontaneous activity) [2]: started to decrease | Body-weight difference between Day 37 and Day 6 [3]: 0.91 g | Body-weight difference (g) between Day 23 and Day 5 [4]: -3.84 g | Tumor growth inhibition rate (TGI, %) at different days post-inoculation (A549 lung carcinoma; Day 11): 27.01% | Tumor growth inhibition rate (TGI, %) at different days post-inoculation (A549 lung carcinoma; Day 14): 45.82% | Tumor growth inhibition rate (TGI, %) at different days post-inoculation (A549 lung carcinoma; Day 18): 43.61% | Tumor growth inhibition rate (TGI, %) at different days post-inoculation (A549 lung carcinoma; Day 21): 44.97% | Tumor growth inhibition rate (TGI, %) at different days post-inoculation (A549 lung carcinoma; Day 25): 46.31% | Tumor growth inhibition rate (TGI, %) at different days post-inoculation (A549 lung carcinoma; Day 29): 49.64% | T/C (A549 lung carcinoma; [6]): greater than 40% | tumor growth inhibition rate (calculated based on tumor volume) (A549 lung carcinoma; [6]): less than 60%
